Experimental data as given in patent publication US9346769B2, “Tetrazolones as inhibitors of fatty acid synthase” (Infinity Pharmaceuticals, Inc., priority 2010, dated 2016).

These compounds were tested against T1, human FASN (Homo sapiens, UniProt P49327) (assay: FASN Scintillation Proximity Flashplate Assay). Conditions: human FASN purified from SKBR3 cells; unstarred symbols.
T1 construct: was purified from SKBR3 cells using procedures modified from those in Jayakumar et al; endogenous in cells; host or cells: SKBR3 human breast cancer cells (ATCC); Endogenous enzyme purified by ammonium sulfate precipitation and a mono Q column
T1 sequence (P49327 whole entry): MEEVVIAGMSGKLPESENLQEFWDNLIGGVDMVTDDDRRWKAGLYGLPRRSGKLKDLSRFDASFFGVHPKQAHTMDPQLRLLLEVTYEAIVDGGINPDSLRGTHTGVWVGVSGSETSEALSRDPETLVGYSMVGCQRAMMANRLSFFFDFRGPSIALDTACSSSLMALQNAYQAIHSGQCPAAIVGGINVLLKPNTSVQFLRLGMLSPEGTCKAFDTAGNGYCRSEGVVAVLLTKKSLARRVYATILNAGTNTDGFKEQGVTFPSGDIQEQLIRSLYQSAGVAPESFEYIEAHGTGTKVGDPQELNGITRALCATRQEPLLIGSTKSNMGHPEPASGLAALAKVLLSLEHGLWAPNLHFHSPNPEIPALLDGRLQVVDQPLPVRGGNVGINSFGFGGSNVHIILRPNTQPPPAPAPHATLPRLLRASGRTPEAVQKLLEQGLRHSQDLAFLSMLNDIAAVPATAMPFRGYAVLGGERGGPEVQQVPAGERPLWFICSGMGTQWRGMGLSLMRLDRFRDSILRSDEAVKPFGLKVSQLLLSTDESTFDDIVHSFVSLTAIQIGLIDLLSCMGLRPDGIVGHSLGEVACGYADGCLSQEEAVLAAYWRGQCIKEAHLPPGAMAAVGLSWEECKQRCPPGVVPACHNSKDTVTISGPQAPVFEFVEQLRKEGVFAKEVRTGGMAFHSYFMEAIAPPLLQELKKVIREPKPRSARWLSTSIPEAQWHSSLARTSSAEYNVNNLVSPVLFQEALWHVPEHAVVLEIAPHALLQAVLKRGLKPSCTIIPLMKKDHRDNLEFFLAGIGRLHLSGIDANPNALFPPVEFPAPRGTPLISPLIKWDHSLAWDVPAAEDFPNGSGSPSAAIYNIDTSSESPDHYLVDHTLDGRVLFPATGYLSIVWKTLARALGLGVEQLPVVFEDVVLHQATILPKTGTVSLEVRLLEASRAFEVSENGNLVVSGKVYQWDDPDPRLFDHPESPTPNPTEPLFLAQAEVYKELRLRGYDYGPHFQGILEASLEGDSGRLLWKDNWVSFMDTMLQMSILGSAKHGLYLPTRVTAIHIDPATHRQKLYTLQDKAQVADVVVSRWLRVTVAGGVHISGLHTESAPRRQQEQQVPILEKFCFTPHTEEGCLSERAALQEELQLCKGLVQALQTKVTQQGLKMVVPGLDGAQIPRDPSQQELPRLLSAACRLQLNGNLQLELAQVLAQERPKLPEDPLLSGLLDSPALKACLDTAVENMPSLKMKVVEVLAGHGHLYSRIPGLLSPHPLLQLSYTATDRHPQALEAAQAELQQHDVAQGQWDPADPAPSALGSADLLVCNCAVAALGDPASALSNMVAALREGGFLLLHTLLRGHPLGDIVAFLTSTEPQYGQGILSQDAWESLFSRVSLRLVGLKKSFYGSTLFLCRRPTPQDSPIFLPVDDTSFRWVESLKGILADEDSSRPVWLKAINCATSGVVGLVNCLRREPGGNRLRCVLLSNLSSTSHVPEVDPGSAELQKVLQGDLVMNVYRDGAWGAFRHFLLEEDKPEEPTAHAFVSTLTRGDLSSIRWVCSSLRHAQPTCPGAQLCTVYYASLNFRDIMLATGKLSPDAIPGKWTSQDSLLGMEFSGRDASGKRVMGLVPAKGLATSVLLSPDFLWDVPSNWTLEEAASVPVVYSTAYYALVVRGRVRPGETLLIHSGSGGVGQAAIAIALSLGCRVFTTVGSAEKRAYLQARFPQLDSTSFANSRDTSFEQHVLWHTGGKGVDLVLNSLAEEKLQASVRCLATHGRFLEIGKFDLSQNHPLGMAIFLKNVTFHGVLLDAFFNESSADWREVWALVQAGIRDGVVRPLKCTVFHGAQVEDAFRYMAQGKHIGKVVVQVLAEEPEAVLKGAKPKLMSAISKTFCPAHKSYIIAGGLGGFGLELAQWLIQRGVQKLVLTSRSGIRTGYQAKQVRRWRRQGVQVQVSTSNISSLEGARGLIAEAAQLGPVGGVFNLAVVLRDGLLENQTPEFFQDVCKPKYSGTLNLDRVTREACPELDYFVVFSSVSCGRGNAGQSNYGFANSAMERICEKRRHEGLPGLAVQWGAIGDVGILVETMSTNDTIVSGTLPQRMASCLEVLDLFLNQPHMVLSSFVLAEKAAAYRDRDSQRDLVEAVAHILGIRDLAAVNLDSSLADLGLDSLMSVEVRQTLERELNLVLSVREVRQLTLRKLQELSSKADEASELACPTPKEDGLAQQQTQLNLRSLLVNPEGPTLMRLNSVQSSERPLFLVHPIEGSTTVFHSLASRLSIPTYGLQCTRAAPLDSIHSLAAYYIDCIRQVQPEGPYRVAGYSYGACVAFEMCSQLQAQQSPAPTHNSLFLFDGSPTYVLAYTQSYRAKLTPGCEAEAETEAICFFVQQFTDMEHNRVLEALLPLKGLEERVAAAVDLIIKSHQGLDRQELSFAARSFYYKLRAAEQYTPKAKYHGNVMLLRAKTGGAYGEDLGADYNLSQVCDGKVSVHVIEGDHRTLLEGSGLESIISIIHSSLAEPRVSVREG
Type: biochemical
Procedure: Human FASN protein (SEQ ID NO. 1) was purified from SKBR3 cells using procedures modified from those in Jayakumar et al. PNAS 1995, 92:8695-8699. SKBR3 cells were obtained from ATCC and grown in DMEM high glucose medium supplemented with 10% FBS, 1 μg/mL bovine pancreas insulin, 100 U/mL penicillin and 100 µg/mL streptomycin. The confluent cells were trypsinized and washed three times with PBS buffer before frozen in liquid N2 and stored at −80° C. Frozen cells were thawed on ice and resuspended in lysis buffer (25 mM Tris-HCl, pH 7.0, 15 mM NaCl, 1 mM EDTA, and 1 mM DTT) with protease inhibitors. The cells were lysed by sonication, and the cell debris was removed by centrifugation at 20,000 rpm for 30 min. To the supernatant, neutralized saturated ammonium sulfate solution was added to a final concentration of 35%. The solution was left on ice for 1 hr, and the precipitated proteins were harvested by centrifugation at 20,000 rpm for 30 min. The proteins were redissolved in lysis buffer without NaCl and loaded on a mono Q column. Bound proteins were eluted with a linear gradient of NaCl in lysis buffer. Each fraction was analyzed by SDS-PAGE and FASN NADPH consumption assay. The fractions containing FASN were pooled and concentrated to 2-3 mg/mL. Glycerol was added to 20%, and the protein was frozen in liquid N2 and stored at −80° C.
Acetyl-coenzyme A, malonyl-coenzyme A, NADPH, bovine gamma globulin, and ORLISTAT were purchased from Sigma (St. Louis, Mo.). Tris(2-carboxyethyl) phosphine hydrochloride (TCEP) was purchased from Pierce Biotechnologies (Rockford, Ill.). [^3H]-acetyl-coenzyme A was purchased from Moravek Biochemicals (Brea, CA). FlashPlate™ PLUS phospholipid 96-well scintillant coated microplates were purchased from Perkin Elmer Life and Analytical Sciences (Shelton, CT). The method of the FASN Scintillation Proximity FlashPlate assay is similar to that described in Weiss and Glickman Assay Drug Dev Technol 2003, 1:161-6. In a 96-well polypropylene microplate, a dilution series (typical concentrations 60 nM-1.0 mM) of test compounds were prepared in DMSO followed by a 20-fold dilution into FASN assay buffer (50 mM potassium phosphate, pH 7.0, 1.0 mM EDTA, 0.01% NP-40), of which 5.0 μL each was transferred to a FlashPlate® PLUS 96-well plate and mixed with 35 μL FASN assay buffer plus 0.5 mg/mL bovine gamma globulin and 1 mM TCEP. FASN protein (10 μL, 10 nM) was added per well, and the microplate was incubated at 37° C. for 30 min. 10 μL of 20 mM NADPH was added, and the reaction was initiated by addition of […] substrate mixture to final concentrations of 1 nM FASN, 100 μM acetyl-coenzyme A, 6 μCi [^3H]-acetyl-coenzyme A, 300 μM malonyl-coenzyme A, 2 mM NADPH, 0.5 mg/mL bovine gamma globulin, and 1 mM TCEP in a volume of 100 μL per well. Assay plates were incubated for 2 hr at 37° C. and the reaction was stopped with 2 μL of 2.5 mM stock solution of ORLISTAT in DMSO to ˜50 μM. The plates were read in a Wallac 1450 Microbeta Plus liquid scintillation counter (Perkin Elmer, Waltham, Mass.), and counts per minute (CPM) were collected over 2 min. Each inhibitor well CPM was compared to the maximum FASN enzyme activity (Max) CPM and the background (Min) CPM, as measured by omission of FASN enzyme in the background well. % Inhibition values were calculated, and curves were fitted by a four-parameter logistic function to yield IC50 values:
Compounds were assayed as inhibitors of human FASN using the above-described FASN Scintillation Proximity Flashplate Assay (IC50; nM) or FASN NADPH Consumption Assay (*) (IC50; nM). The corresponding activity of the isolated compound is also provided along with the measured mass (ES^+).

Row | Structure (SMILES) | IC50
1 | CCN(C(=O)n1nnn(-c2c(Cl)cccc2Cl)c1=O)c1cccc(C(=O)O)c1 | 15 to 100 nM
2 | COc1cccc(F)c1-n1nnn(C(=O)N(c2cccc(C(=O)OCc3ccccc3)c2)C(C)(C)C)c1=O | 200 to 5000 nM
3 | CC(C)N(C(=O)n1nnn(-c2c(F)cccc2F)c1=O)c1ccc(Cl)c(C(=O)O)c1 | < 15 nM
4 | COc1ccc(C(=O)O)cc1N(C(=O)n1nnn(-c2c(F)cccc2OC(C)C)c1=O)C1CCCCC1 | 15 to 100 nM
5 | CCN(C(=O)n1nnn(-c2c(Cl)cccc2Cl)c1=O)c1ccc(C(=O)O)cc1 | < 15 nM
6 | COc1ccc(COC(=O)[C@H]2CC[C@H](N(C(=O)n3nnn(-c4c(F)cccc4OC)c3=O)c3ccccc3)CC2)cc1 | 15 to 100 nM
7 | COc1ccc(C(=O)O)cc1N(C(=O)n1nnn(-c2c(F)cccc2F)c1=O)C1CCCCC1 | < 15 nM
8 | CCN(C(=O)n1nnn(-c2c(F)cccc2OC)c1=O)c1cc(Oc2ccc(C(=O)OCc3ccccc3)cc2)ccc1C | 200 to 5000 nM
9 | O=C(O)c1ccc(N(C(=O)n2nnn(-c3c(F)cccc3F)c2=O)C2CCCCC2)c(Oc2ccccc2)c1 | < 15 nM
10 | CCN(C(=O)n1nnn(-c2ccccc2OC)c1=O)c1ccc(C(=O)OCc2ccccc2)cc1 | 15 to 100 nM
11 | COc1ccc(N(C(=O)n2nnn(-c3c(F)cccc3F)c2=O)C2CCCCC2)cc1C(=O)NC(C)(C)C(=O)O | < 15 nM
12 | CC(C)(C)OC(=O)Nc1ccc(N(C(=O)n2nnn(-c3c(F)cccc3F)c2=O)C2CCCCC2)cc1C(=O)O | < 15 nM
13 | COc1ccc(N(C(=O)n2nnn(-c3c(F)cccc3OC)c2=O)C(C)C)cc1C(=O)OCc1ccccc1 | < 15 nM
14 | CC(C)N(C(=O)n1nnn(-c2c(F)cccc2F)c1=O)c1ccc(NC(=O)OC(C)(C)C)c(C(=O)O)c1 | < 15 nM
15 | CCNC(=O)Nc1ccc(N(CC)C(=O)n2nnn(-c3c(F)cccc3F)c2=O)c(F)c1 | < 15 nM
16 | CCN(C(=O)n1nnn(-c2c(F)cccc2OC)c1=O)c1ccc(C(=O)O)c(OC)c1 | 15 to 100 nM
17 | COc1ccc(COC(=O)c2cc(N(C(=O)n3nnn(-c4c(F)cccc4OC)c3=O)C(C)C)ccc2OCCc2ccccc2)cc1 | < 15 nM
18 | CCN(C(=O)n1nnn(-c2c(F)cccc2OC)c1=O)c1cccc(Oc2cccc(C(=O)O)c2)c1 | < 15 nM

Row | Structure (SMILES) | IC50
19 | CCCCOc1ccc(C(=O)O)cc1N(CC)C(=O)n1nnn(-c2c(F)cccc2F)c1=O | < 15 nM
20 | CC(=O)N1CCN(c2ccc(N(C(=O)n3nnn(-c4c(F)cccc4F)c3=O)C3CCCCC3)cc2C(=O)O)CC1 | < 15 nM
21 | CC(C)N(C(=O)n1nnn(-c2c(F)cccc2F)c1=O)c1ccc(C(=O)O)cc1F | < 15 nM
22 | CCN(C(=O)n1nnn(-c2c(F)cccc2F)c1=O)c1ccc(NC(C)=O)cc1F | < 15 nM
23 | CCCN(C(=O)n1nnn(-c2ccccc2Cl)c1=O)C1CCCC1 | 200 to 5000 nM
24 | CCC(CC)N(C(=O)n1nnn(-c2c(F)cccc2F)c1=O)c1cccc(C(=O)OCc2ccccc2)c1 | < 15 nM
25 | CCN(C(=O)n1nnn(-c2c(F)cccc2F)c1=O)c1ccccc1F | < 15 nM
26 | CN(C)c1ccc(N(C(=O)n2nnn(-c3c(F)cccc3F)c2=O)C2CCCCC2)cc1C(=O)O | < 15 nM
27 | O=C(NCc1ccccc1)c1cccc(N(C(=O)n2nnn(-c3c(F)cccc3F)c2=O)C2CCCCC2)c1 | < 15 nM
28 | Cc1ccc(C)n1-c1ccc(N(C(=O)n2nnn(-c3c(F)cccc3F)c2=O)C2CCCCC2)cc1C(=O)O | < 15 nM
29 | COc1ccc(N(C(=O)n2nnn(-c3c(F)cccc3C(=O)O)c2=O)C(C)C)cc1C(=O)OCc1ccccc1 | 15 to 100 nM
30 | CC(C)N(C(=O)n1nnn(-c2c(F)cccc2F)c1=O)c1ccc(Cl)c(C(=O)OCc2ccccc2)c1 | < 15 nM
31 | COc1ccc(N(C(=O)n2nnn(-c3c(F)cccc3OCC(OC)OC)c2=O)C2CCCCC2)cc1C(=O)O | < 15 nM
32 | CCN(C(=O)n1nnn(-c2ccccc2OC)c1=O)c1ccc(OC)cc1 | 100 to 200 nM
33 | COc1cccc(F)c1-n1nnn(C(=O)N(c2cccc(C(=O)O)c2)C(C)C)c1=O | 15 to 100 nM
34 | CCN(C(=O)n1nnn(-c2c(F)cccc2F)c1=O)c1c(F)cccc1F | < 15 nM
35 | Nc1ccc(N(C(=O)n2nnn(-c3c(F)cccc3F)c2=O)C2CCCCC2)cc1C(=O)O | < 15 nM
